Patent US20030170312A1, “Method for coating solid particles with a thermofusible agent, and resulting coated solid particles” (priority 2000, published 2003)
Each block holds one compound with its values, some of them ahead of it.

Assay: Particle size (mean/median diameter, D50) before and after coating
Assay type: physicochemical
Source text: On FIG. 1, the distribution of the particles before and after coating has been represented. As shown in this figure, the set of coated particles has the same distribution as that of the uncoated particles, showing not only that the particles were evenly coated, but also that the amount of coating is less. Thus, it is observed that the mean diameter of the particles before coating is equal to 176 micrometers, while the mean diameter of the coated particles is equal to 180 micrometers. […] FIG. 2 represents in parallel the distribution of the particles before and after coating. As shown in this figure, the set of coated particles has the same distribution as those of the uncoated particles, showing not only that the particles were evenly coated, but also that the amount of coating is less. Thus, it is observed that the mean diameter of the particles before coating is equal to 60 micrometers, while the mean diameter of the coated particles is equal to 75 micrometers. The table below represents the mean size of the ibuprofen particles (D50) before and after coating. FIG. 5 represents in parallel the distribution of the particles before and after coating.

Median (D50) particle size (Example 4: paracetamol with Precirol ATO 5, theoretical 6% by mass): 326.1 μm
Compound: CC(=O)Nc1ccc(O)cc1 [compound 99292402, Paracetamol]

mean diameter of the particles (Example 1: ibuprofen before and after coating with PRECIROL, coating 7% by weight): 176 micrometers
Compound: CC(C)Cc1ccc(C(C)C(=O)O)cc1 (stereo not drawn) [ibuprofen]

Mean (D50) size of the ibuprofen particles (Example 2: ibuprofen with PRECIROL in the proportion of 15%): 130.0 μm
Compound: CC(C)Cc1ccc(C(C)C(=O)O)cc1 (stereo not drawn) [5200I1014, ibuprofen]
